The source of these data is patent US6306860A, “2,5-pyridinedicarboxylic acid derivatives” (Dong Wha Pharm. Inc. Co., Ltd., priority 1998, dated 2001).

Where a name gives a salt, the structure may show the parent alone.

The target of one assay is T1, HBV polymerase (Hepatitis B virus genotype D subtype ayw, UniProt P03156).
T1 construct: made in house; host or cells: E. coli
As to the kind of experiment: Inhibitory activities against HBV polymerase (reverse transcriptase activity) in vitro. The settings on record: read-out: Inhibitory activity of HBV-RT (%); for inhibition at 0.01 µg/mL: 0.01 μg/ml; for inhibition at 0.1 µg/mL: 0.1 μg/ml; for inhibition at 1 µg/mL: 1 μg/ml. It is filed as biochemical. An excerpt: Experiment 1:Inhibitory Activities Against HBV Polymerase in vitro
Recently, the inventors of the present invention have produced a recombinant HBV polymerase that is expressed from E.coli transformant, measured its enzyme activity and filed patent applications threrof [Korean Pat. Appl. Nos. 94-3918 and 96-33998].
The inventors have also established a method of measuring the reverse transcriptase activity of HBV polymerase in vitro. The fundamental principle is the same as the ELISA method, and after reacting the substrate with biotin- and DIG-modified nucleotide, a method of recognizing the polymerized substrate as anti-DIG antibody with peroxidase was used.
20 μl of HBV polymerase, 20 μl of reaction mixture and 20 μl of test compound was mixed and reacted at 14° C.~30° C. for 18~24 hours. Then, the inhibitory effect of the test compound against reverse transcriptase activity in the HBV polymerase was examined, compared with the results of control tests without the test compound.

Assay [1] concerns the target T2, HIV reverse transcriptase (Human immunodeficiency virus type 1 group M subtype B, UniProt P04585).
T2 construct: purchased Boehringer Mannheim
Put plainly: In vitro inhibition test against HIV reverse transcriptase. In kind it is biochemical. The settings on record: read-out: Inhibitory activity of HIV-RT (%); for inhibition at 0.1 µg/mL: 0.1 μg/ml; for inhibition at 1 µg/mL: 1 μg/ml. As for the experimental part:
Experiment 2: The in vitro Inhibition Test Against HIV Reverse Transcriptase
The inhibitory activity in vitro was measured using a non-radioactive reverse transcriptase assay Kit (Boehringer Mannheim).
At first, 20 μl(40 ng) of HIV-RT was added to the wells, coated with streptavidin and with the addition of 20 μl reaction mixture containing template/primer hybrid poly(A)/oligo(dT)15 and DIG-(digoxigenin)-dUTP, biotin-dUTP and TTP, 20 μl of test compound was added and reacted at 37° C. for 1 hour. The control without test compound was used for the comparison of related activity. Since DNA containing nucleotide labeled with digoxigenin and biotine was prepared by the action of HIV-RT, it was combined with streptavidin coated at the bottom of the wells. After the reaction was completed, remaining impurities were removed by washing each well with 250 μl buffer solution (pH 7.0) for 30 seconds 5 times and with the addition of 200 μl anti-DIG-POD antibody, the mixture was reacted at 37° C. for 1 hour. For the removal of remaining impurities again, the reacting solution was washed with a buffer solution and with the addition of 200 μl ABTS™ each, a substrate of POD(peroxidase), the solution was reacted at room temperature for 30 minutes. The absorbance was read by ELISA reader at 405 nm for the assay of reverse transcriptase activity and its inhibition activity.

T1 sequence (P03156 whole entry): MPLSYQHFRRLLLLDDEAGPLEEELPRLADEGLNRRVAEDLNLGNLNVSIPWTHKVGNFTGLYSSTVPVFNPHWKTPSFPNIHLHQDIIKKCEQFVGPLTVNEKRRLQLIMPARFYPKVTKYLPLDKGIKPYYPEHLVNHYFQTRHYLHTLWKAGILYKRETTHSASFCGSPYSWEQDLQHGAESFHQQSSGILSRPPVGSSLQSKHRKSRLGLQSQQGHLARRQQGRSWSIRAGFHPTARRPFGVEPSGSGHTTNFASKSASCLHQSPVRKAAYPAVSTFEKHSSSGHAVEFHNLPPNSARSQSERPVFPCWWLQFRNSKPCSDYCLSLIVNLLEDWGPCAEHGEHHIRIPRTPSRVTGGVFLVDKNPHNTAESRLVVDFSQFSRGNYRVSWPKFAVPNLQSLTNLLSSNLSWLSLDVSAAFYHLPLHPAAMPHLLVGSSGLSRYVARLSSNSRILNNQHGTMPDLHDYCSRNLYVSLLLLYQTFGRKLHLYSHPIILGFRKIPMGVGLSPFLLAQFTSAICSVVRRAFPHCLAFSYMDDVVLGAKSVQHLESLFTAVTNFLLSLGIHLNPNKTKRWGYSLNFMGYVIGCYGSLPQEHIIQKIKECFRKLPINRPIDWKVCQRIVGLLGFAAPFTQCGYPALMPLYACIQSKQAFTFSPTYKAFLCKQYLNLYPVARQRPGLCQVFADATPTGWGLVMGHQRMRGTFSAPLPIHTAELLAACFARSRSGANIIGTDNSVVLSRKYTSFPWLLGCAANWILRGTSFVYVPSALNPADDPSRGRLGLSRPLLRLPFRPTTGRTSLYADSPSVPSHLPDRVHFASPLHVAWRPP

With `CC(C)Nc1cccnc1N1CCN(C(=O)c2ccc(C(=O)NC(C)(C)C)cn2)CC1` [Exam. 28, 5-[N-(1,1-dimethylethyl)carbamoyl]-2-[1-[3-(isopropylamino)-2-pyridyl]piperazin-4-yl-carbonyl]pyridine], on HBV polymerase, the inhibition at 0.01 µg/mL was determined as 61%, the inhibition at 0.1 µg/mL was found to be 72% and the inhibition at 1 µg/mL is 88%. In assay [1], the inhibition at 0.1 µg/mL was determined as 45% and the inhibition at 1 µg/mL came out at 55%.

Regarding `CC(C)CNC(=O)c1ccc(C(=O)N2CCN(c3ncccc3NC(C)C)CC2)nc1` [Exam. 30, 2-[1-[3-(isopropylamino)-2-pyridyl]piperazin-4-yl-carbonyl]-5-[N-(2-methylpropyl)carbamoyl]pyridine], at HBV polymerase, the inhibition at 0.01 µg/mL turned out to be 61%, the inhibition at 0.1 µg/mL amounted to 65% and the inhibition at 1 µg/mL stood at 83%. Further, in assay [1], the inhibition at 0.1 µg/mL worked out at 32% and the inhibition at 1 µg/mL was 58%.

Consider `CCN(CC)C(=O)c1ccc(C(=O)N2CCN(c3ncccc3NC(C)C)CC2)nc1` [Exam. 33, 5-(N,N-diethylcarbamoyl)-2-[1-[3-(isopropylamino)-2-pyridyl]piperazin-4-yl-carbonyl]pyridine], for which, at HBV polymerase, the inhibition at 0.01 µg/mL stood at 20%, the inhibition at 0.1 µg/mL is 62% and the inhibition at 1 µg/mL came to 73%. For the same compound, in assay [1], the inhibition at 0.1 µg/mL was found to be 64% and the inhibition at 1 µg/mL is 80%.

On to `CC(C)Nc1cccnc1N1CCN(C(=O)c2ccc(C(=O)NC3CC3)cn2)CC1` [Exam. 35, 5-(N-cyclopropylcarbamoyl)-2-[1-[3-(isopropylamino)-2-pyridyl]piperazin-4-yl-carbonyl]pyridine], for which, on HBV polymerase, the inhibition at 0.01 µg/mL was 5%, the inhibition at 0.1 µg/mL was 51% and the inhibition at 1 µg/mL stood at 62%. Also, in assay [1], the inhibition at 0.1 µg/mL was 30% and the inhibition at 1 µg/mL came out at 68%.

As for `CC(C)CNc1cccnc1N1CCN(C(=O)c2ccc(C(=O)NC3CC3)cn2)CC1` [Exam. 36], at HBV polymerase, the inhibition at 0.01 µg/mL stood at 60%, the inhibition at 0.1 µg/mL amounted to 71% and the inhibition at 1 µg/mL was determined as 87%. Besides, in assay [1], the inhibition at 0.1 µg/mL was 60% and the inhibition at 1 µg/mL worked out at 73%.

Take `CC(C)Nc1cccnc1N1CCN(C(=O)c2ccc(C(=O)NC3CCCC3)cn2)CC1` [Exam. 37, 5-(N-cyclopentylcarbamoyl)-2-[1-[3-(isopropylamino)-2-pyridyl]piperazin-4-yl-carbonyl]pyridine]: at HBV polymerase, the inhibition at 0.01 µg/mL came out at 39%, the inhibition at 0.1 µg/mL came to 65% and the inhibition at 1 µg/mL came to 75%. Moreover, in assay [1], the inhibition at 0.1 µg/mL amounted to 25% and the inhibition at 1 µg/mL is 51%.

In the case of `COCCNC(=O)c1ccc(C(=O)N2CCN(c3ncccc3NC(C)C)CC2)nc1` [Exam. 39, 2-[1-[3-(isopropylamino)-2-pyridyl]piperazin-4-yl-carbonyl]-5-[N-(2-methoxyethyl)carbamoyl]pyridine], at HBV polymerase, the inhibition at 0.01 µg/mL was 60%, the inhibition at 0.1 µg/mL was 68% and the inhibition at 1 µg/mL was 80%. Moreover, in assay [1], the inhibition at 0.1 µg/mL was 65% and the inhibition at 1 µg/mL turned out to be 72%.

As to `CCNc1cccnc1N1CCN(C(=O)c2ccc(C(=O)NCCOC)cn2)CC1` [Exam. 40, 2-[1-[3-(ethylamino)-2-pyridyl]piperazin-4-yl-carbonyl]-5-[N-(2-methoxyethyl)carbamoyl]-pyridine], at HBV polymerase, the inhibition at 0.01 µg/mL is 36%, the inhibition at 0.1 µg/mL was determined as 57% and the inhibition at 1 µg/mL turned out to be 75%. Moreover, in assay [1], the inhibition at 0.1 µg/mL came to 52% and the inhibition at 1 µg/mL stood at 70%.

Regarding `COCCNC(=O)c1ccc(C(=O)N2CCN(c3ncccc3NCC(C)C)CC2)nc1` [Exam. 41, 2-[1-[3-(isobutylamino)-2-pyridyl]piperazin-4-yl-carbonyl]-5-[N-(2-methoxyethyl)carbamoyl]-pyridine], on HBV polymerase, the inhibition at 0.01 µg/mL worked out at 52%, the inhibition at 0.1 µg/mL was found to be 70% and the inhibition at 1 µg/mL came out at 85%. Moreover, in assay [1], the inhibition at 0.1 µg/mL was found to be 34% and the inhibition at 1 µg/mL came to 55%.

Take `COCCN(CCOC)C(=O)c1ccc(C(=O)N2CCN(c3ncccc3NC(C)C)CC2)nc1` [Exam. 42, 5-[N,N-bis(2-methoxyethyl)carbamoyl]-2-[1-[3-(isopropylamino)-2-pyridyl]piperazin-4-yl-carbonyl]pyridine.HCl]: at HBV polymerase, the inhibition at 0.01 µg/mL amounted to 15%, the inhibition at 0.1 µg/mL was found to be 52% and the inhibition at 1 µg/mL stood at 70%. For the same compound, in assay [1], the inhibition at 0.1 µg/mL was determined as 20% and the inhibition at 1 µg/mL was 54%.

Consider `COCC(C)NC(=O)c1ccc(C(=O)N2CCN(c3ncccc3NC(C)C)CC2)nc1` (stereo not shown) [Exam. 43, 2-[1-[3-(isopropylamino)-2-pyridyl]piperazin-4-yl-carbonyl]-5-[N-(2-methoxy-1-methylethyl)carbamoyl]pyridine], for which, on HBV polymerase, the inhibition at 0.01 µg/mL is 50%, the inhibition at 0.1 µg/mL amounted to 61% and the inhibition at 1 µg/mL was found to be 68%. For the same compound, in assay [1], the inhibition at 0.1 µg/mL came out at 44% and the inhibition at 1 µg/mL amounted to 56%.

For `COCCCNC(=O)c1ccc(C(=O)N2CCN(c3ncccc3NC(C)C)CC2)nc1` [Exam. 45, 2-[1-[3-(isopropylamino)-2-pyridyl]piperazin-4-yl-carbonyl]-5-[N-(3-methoxypropyl)carbamoyl]pyridine], on HBV polymerase, the inhibition at 0.01 µg/mL was found to be 28%, the inhibition at 0.1 µg/mL is 53% and the inhibition at 1 µg/mL was 63%. Besides, in assay [1], the inhibition at 0.1 µg/mL amounted to 47% and the inhibition at 1 µg/mL came to 68%.

Regarding `COCCCNC(=O)c1ccc(C(=O)N2CCN(c3ncccc3NCC(C)C)CC2)nc1` [Exam. 47, 2-[1-[3-(isobutylamino)-2-pyridyl]piperazin-4-yl-carbonyl]-5-[N-(3-methoxypropyl)carbamoyl]pyridine], on HBV polymerase, the inhibition at 0.01 µg/mL was 20%, the inhibition at 0.1 µg/mL came to 51% and the inhibition at 1 µg/mL came out at 72%. In assay [1], the inhibition at 0.1 µg/mL was 53% and the inhibition at 1 µg/mL turned out to be 69%.

With `CC(C)Nc1cccnc1N1CCN(C(=O)c2ccc(C(=O)NCCOCCO)cn2)CC1` [Exam. 48, 5-[N-[2-(2-hydroxyethoxy)ethyl]carbamoyl]-2-[1-[3-(isopropylamino)-2-pyridyl]piperazin-4-yl-carbonyl]pyridine], on HBV polymerase, the inhibition at 0.01 µg/mL was 52%, the inhibition at 0.1 µg/mL was 66% and the inhibition at 1 µg/mL was 79%. In addition, in assay [1], the inhibition at 0.1 µg/mL is 41% and the inhibition at 1 µg/mL turned out to be 52%.

On to `COC(CN(C)C(=O)c1ccc(C(=O)N2CCN(c3ncccc3NC(C)C)CC2)nc1)OC` [Exam. 50, 5-[N-(2,2-dimethoxyethyl)-N-methylcarbamoyl]-2-[1-[3-(isopropylamino)-2-pyridyl]piperazin-4-yl-carbonyl]pyridine.HCl], for which, on HBV polymerase, the inhibition at 0.01 µg/mL was determined as 15%, the inhibition at 0.1 µg/mL was 51% and the inhibition at 1 µg/mL was found to be 60%. Further, in assay [1], the inhibition at 0.1 µg/mL was determined as 40% and the inhibition at 1 µg/mL turned out to be 55%.

With `COC(CNC(=O)c1ccc(C(=O)N2CCN(c3ncccc3NC(C)C)CC2)nc1)OC` [Exam. 51, 5-[N-(2,2-dimethoxyethyl)carbamoyl]-2-[1-[3-(isopropylamino)-2-pyridyl]piperazin-4-yl-carbonyl]pyridine], on HBV polymerase, the inhibition at 0.01 µg/mL was determined as 57%, the inhibition at 0.1 µg/mL was 65% and the inhibition at 1 µg/mL amounted to 87%. Further, in assay [1], the inhibition at 0.1 µg/mL was found to be 30% and the inhibition at 1 µg/mL turned out to be 51%.

As for `CC(C)Nc1cccnc1N1CCN(C(=O)c2ccc(C(=O)N(C)CC3OCCO3)cn2)CC1` [Exam. 52, 5-[N-[(1,3-Dioxolan-2-yl)methyl]-N-methylcarbamoyl]-2-[1-[3-(isopropylamino)-2-pyridyl]piperazin-4-yl-carbonyl]pyridine], on HBV polymerase, the inhibition at 0.01 µg/mL was 39%, the inhibition at 0.1 µg/mL stood at 60% and the inhibition at 1 µg/mL came to 76%. Besides, in assay [1], the inhibition at 0.1 µg/mL worked out at 50% and the inhibition at 1 µg/mL is 62%.
